Measurements: ChEMBL document CHEMBL3813656, “Allosteric Glutaminase Inhibitors Based on a 1,4-Di(5-amino-1,3,4-thiadiazol-2-yl)butane Scaffold” (ACS Med Chem Lett, 2016)
Values after ≈ are worked out from the molar mass of the structure shown. Active and inactive are the calls of the source. The rule behind the calls is not given here.

biological target: T1, Glutaminase kidney isoform, mitochondrial (Homo sapiens, UniProt O94925); test: Inhibition of human kidney type glutaminase (124 to 669 residues) using L-[3H]-glutamine as substrate after 45 mins by topcount method; conditions: not given
T1 sequence (O94925 whole entry): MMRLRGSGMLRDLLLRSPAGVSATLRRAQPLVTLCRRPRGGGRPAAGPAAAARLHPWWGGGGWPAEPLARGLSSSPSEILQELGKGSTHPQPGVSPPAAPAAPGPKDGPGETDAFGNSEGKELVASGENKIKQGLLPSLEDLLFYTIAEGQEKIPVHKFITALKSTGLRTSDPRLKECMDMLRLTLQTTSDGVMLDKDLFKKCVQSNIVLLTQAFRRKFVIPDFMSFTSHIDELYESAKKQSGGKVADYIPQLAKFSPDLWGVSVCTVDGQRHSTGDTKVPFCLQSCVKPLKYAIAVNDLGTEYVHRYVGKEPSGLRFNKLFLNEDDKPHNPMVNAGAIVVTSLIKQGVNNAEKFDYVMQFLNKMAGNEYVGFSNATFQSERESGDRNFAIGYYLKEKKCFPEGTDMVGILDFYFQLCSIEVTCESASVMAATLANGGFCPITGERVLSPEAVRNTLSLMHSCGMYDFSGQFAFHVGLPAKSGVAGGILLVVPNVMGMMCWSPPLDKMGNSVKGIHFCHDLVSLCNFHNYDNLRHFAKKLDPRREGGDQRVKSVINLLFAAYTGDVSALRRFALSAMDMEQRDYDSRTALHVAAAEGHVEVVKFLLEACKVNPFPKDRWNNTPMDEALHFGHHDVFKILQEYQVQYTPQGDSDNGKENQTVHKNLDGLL

Row | IC50 [nM] | Structure (SMILES)
1 | 2300 | Nc1ccc(CC(=O)Nc2nnc(CCCCc3nnc(NC(=O)Cc4ccccc4)s3)s2)cc1
2 | 120 | CC(=O)Oc1ccc(CC(=O)Nc2nnc(CCCCc3nnc(NC(=O)Cc4cccnc4)s3)s2)cc1
3 | 120 | O=C(Cc1ccccc1)Nc1nnc(CCCCc2nnc(NC(=O)Cc3cccc(O)c3)s2)s1
4 | 110 | O=C(Cc1ccccc1)Nc1nnc(CCCCc2nnc(NC(=O)Cc3ccc(C(=O)O)cc3)s2)s1
5 | 1200 | CC(=O)Oc1ccc(CC(=O)Nc2nnc(CCCCc3nnc(NC(=O)Cc4ccc(OC(C)=O)cc4)s3)s2)cc1
6 | 170 | O=C(Cc1ccccc1)Nc1nnc(CCCCc2nnc(NC(=O)Cc3ccc(Br)cn3)s2)s1
7 | 450 | CC(C)(C)OC(=O)Nc1ccc(CC(=O)Nc2nnc(CCCCc3nnc(NC(=O)Cc4ccccc4)s3)s2)cc1
8 | 140 | O=C(Cc1ccc(O)cc1)Nc1nnc(CCCCc2nnc(NC(=O)Cc3cccnc3)s2)s1
9 | 70 | O=C(Cc1ccccc1)Nc1nnc(CCCCc2nnc(NC(=O)Cc3cccnc3)s2)s1
10 | 120 | O=C(Cc1ccc(O)cc1)Nc1nnc(CCCCc2nnc(NC(=O)Cc3ccc(O)cc3)s2)s1
11 | 540 | CC(=O)Oc1ccc(CC(=O)Nc2nnc(CCCCc3nnc(NC(=O)Cc4ccccc4)s3)s2)cc1
12 | 70 | O=C(Cc1ccccc1)Nc1nnc(CCCCc2nnc(NC(=O)Cc3ccc(O)cc3)s2)s1
13 | 3000 | CN(C)c1ccc(CC(=O)Nc2nnc(CCCCc3nnc(NC(=O)Cc4ccccc4)s3)s2)cc1
14 | 13000 | COC(=O)c1ccc(CC(=O)Nc2nnc(CCCCc3nnc(NC(=O)Cc4ccccc4)s3)s2)cc1
15 | 70 | O=C(Cc1ccccc1)Nc1nnc(CCCCc2nnc(NC(=O)Cc3ccccn3)s2)s1
16 | 2000 | CC(=O)Oc1ccc(CC(=O)Nc2nnc(CCCCc3nnc(NC(=O)Cc4cccc(OC(F)(F)F)c4)s3)s2)cc1
17 | 380 | O=C(Cc1ccccc1)Nc1nnc(CCCCc2nnc(NC(=O)Cc3ccc(Oc4ccccc4)cc3)s2)s1
18 | 210 | COc1ccc(CC(=O)Nc2nnc(CCCCc3nnc(NC(=O)Cc4ccccc4)s3)s2)cc1
19 | 510 | O=C(Cc1ccc(O)cc1)Nc1nnc(CCCCc2nnc(NC(=O)Cc3cccc(OC(F)(F)F)c3)s2)s1

Row | Structure (SMILES) | IC50 [nM]
20 | O=C(Cc1ccccc1)Nc1nnc(CCCCc2nnc(NC(=O)Cc3ccc(OCc4ccccc4)cc3)s2)s1 | > 25000

system: not listed separately; test: Aqueous solubility of the compound in PBS buffer at pH 7.4 at 37 degC after 24 hrs by LC/MS analysis; assay type: physicochemical; conditions: pH 7.4, 24 h

Row | solubility [µg/mL] | Structure (SMILES)
21 | 17 (≈ 33.4 µM) | O=C(Cc1ccccc1)Nc1nnc(CCCCc2nnc(NC(=O)Cc3ccc(O)cc3)s2)s1

biological target: T2, Glutaminase kidney isoform, mitochondrial (Homo sapiens) (UniProt O94925); conditions: not given
T2 sequence (whole entry): T1 sequence (O94925 whole entry)

Row | TDI | Structure (SMILES)
22 | inactive | O=C(Cc1ccccc1)Nc1nnc(CCCCc2nnc(NC(=O)Cc3ccc(O)cc3)s2)s1
